Data from patent US11439615B2, “Lipoxin and lipoxin analogue mediated neuroprotection and treatments” (University Health Network, priority 2017, dated 2022).

Key:
[1] = test system: primary cortical neurons; assay: Primary cortical neurons under paraquat oxidative stress, neuron number; assay type: cell-based; conditions: n=5
Text: Quantification of neuron number following oxidative stress from the redox cycling compound paraquat in primary cortical neurons.

[2] = test system: HT22 cells; assay: Glutamate challenge of HT22 neuronal cells, viability; assay type: cell-based; conditions: for protective activity of related molecules: up to 1 μM, glutamate challenged HT22 cells
Description: An in vitro assay to recapitulate key aspects of the acute KA model was established. In this case, unconcentrated ACM was applied to the glutamate sensitive neuronal cell line HT22 (66, 67). Glutamate challenge of 5 mM was titrated to induce 60-80% cell death (ie: 20-40% survival). […] The media was concentrated for proteomic analyses.
LXA4 and LXB4 promote direct neuroprotective signaling. To the inventor's knowledge, a role for lipoxins as direct neuroprotective or neurotrophic factors has not been reported. Although their established anti-inflammatory actions extend to the CNS (29-32). However, it was hypothesized they may have indirect protective effects. In order to test whether the protective activity was direct or indirect, LXA4 or LXB4 was applied to neuronal cells in an established in vitro assay.
There is no established receptor for LXB4. However, LXB4 shares structural homology with LXA4 and the DHA-derived resolving D2 (RvD2), which mediate their actions via FPR2 or GPR18 (74), respectively. Therefore, it was assessed whether specific receptor antagonists for FPR2 or GPR18 could block LXB4 mediated protection.
As shown in FIG. 14 lipoxin neuroprotection is dose responsive. Dose responses were generated for LXA4 (open circles) and LXB4 (closed circles) in HT22 cells exposed to glutamate stress, followed by nonlinear regression analyses.

[3] = test system: HT22 cells; assay: Mitosox mitochondrial oxidative stress in glutamate challenged HT22 cells; assay type: cell-based; conditions: 1 μM, HT22 cells challenged with glutamate, vs vehicle
Description: HT22 cells challenged with glutamate were then assayed for mitochondrial oxidative stress using the Mitosox reagent, in combination with 1 μM LXA4, LXB4, and the LXA4 receptor ALX/FPR2 agonists Quinc-1 and Mmk-1.

[4] = test system: retinal ganglion cell neurons (RGCs); assay: Mouse acute retinal insult model (intravitreal kainic acid), RGC survival / GCL apoptosis; assay type: in vivo
Description: Male C57BLL/6 mice, 4-6 weeks of age, were purchased from Taconic or Jackson labs. All experimental protocols were approved by the UHN and UC Berkeley ACUC in accordance with applicable regulations. Mice were anesthetized by intraperitoneal injection of ketamine/xylazine. Intravitreal injections with 10 mM kainic acid (KA) were performed as previously described (45). Briefly, a 30-gauge needle was inserted tangentially into the vitreous and replaced with a Hamilton syringe to inject a volume of 2 μL, followed by application of ophthalmic antibiotic ointment (BNP, Vetoquinol). In some experiments, 10× concentrated ACM or test compounds were injected intravitreally one hour prior to the KA injection in concentrations as follows: LXA4 and LXB4 at 10 μM, Zileuton at 2 μg/ul, and WRW4 at 15 μM, all dissolved in PBS. Mice were euthanized by CO2 asphyxiation 18 hours post KA treatment and the eyes fixed in 4% paraformaldehyde. In all experiments n refers to the number of animals tested.
To quantify the extent of apoptosis, a well-established method was used to count the number of TUNEL-positive nuclei in the ganglion cell layer (GCL) and expressed it as a fraction of the total GCL nuclei (50-54). TUNEL labeling was performed according to the manufacturer's instructions (DeadEnd; Promega). Briefly, cryostat sections were fixed with 4% PFA for 5 minutes and washed in PBS. Equilibration buffer was added, and rTdT reaction mix was applied to each slide and incubated at 37° C. for 60 min. Following the rTdT reaction, slides were washed in 2×SSC and PBS and finally mounted with glycerol-based medium. For RGC survival, RBPMS-positive cells in the GCL were counted and expressed as a fraction of GCL nuclei. For each eye, at least five central retinal sections were analyzed at the level of the optic nerve stretching to each ora serrata, and the results averaged, as previously described (42).
In order to test the influence of the transplanted cells on inner retinal pathology, RA's were transplanted as above. After 16 days retinas were challenged with an acute metabolic injury by injection of kainic acid (KA). […]
Retinal astrocyte neuroprotection is mediated through secreted factors that include a small molecule component enriched in LXA4 and LXB4. […] This time, survival of RGCs was specifically assessed by probing for the selective marker RBPMS, along with complementary TUNEL staining, and quantified as previously. As expected, extensive RGC loss was detected in KA challenged eyes injected with cell-free control media incubated under the same conditions as ACM (FIG. 2A). […]

Row | SMILES | neuron number following oxidative stress from paraquat [1] | protective activity of related molecules [2] | other results
1 | CCCCC[C@H](O)/C=C/C=C\C/C=C\C/C=C\CCCC(=O)O [15-HETE, reference compound] | no protection | no protective activity | 
2 | C=C(C)[C@@H]1CCC(C)=C[C@H]1c1c(OC)cc(C)cc1OC [O-1918, reference compound] |  |  | block of LXB4 protective activity by receptor antagonist ([2]; LXB4 at 500 nM, increasing μM concentrations of antagonist): did not block LXB4 protective activity
3 | CCCCOc1ccc(C(=O)NN2C(=O)c3ccccc3NC2c2ccc(OC)cc2)cc1 (centres unmarked) [Quinc-1, reference compound] |  |  | mitochondrial oxidative stress (Mitosox) [3]: reduce mitochondrial oxidative stress
4 | CC/C=C\C[C@H](O)[C@H](O)/C=C/C=C/C=C\C=C\[C@@H](O)C/C=C\CCC(=O)O [RvD2, reference compound] | no protection | no protective activity | 
5 | CC(c1cc2ccccc2s1)N(O)C(N)=O (centres unmarked) [Zileuton, reference compound] |  |  | exacerbation of RGC loss in response to KA challenge compared to vehicle ([4]; intravitreal inhibitor prior to KA, Zileuton 10 μM or 2 μg/ul, WRW4 15 μM): 60%; effect on RGC numbers, drug alone ([4]; uninjured (naive) eyes, intravitreal, no KA, RBPMS counts): no effect
